Source: US10132029B2, “Method for reducing adhesion of microorganisms to fabrics” (priority 2013, dated 2018)
Read-outs that look alike come from different tables or passages of the source.

Assays:
S. aureus DSMZ 20231 = test: Syto9 microtiter plate assay: adhesion of bacteria to coated polyester fabric samples; format: cell-based, Staphylococcus aureus; conditions: for Reduction in adhered bacteria [%]: S. aureus, polyester; for Reduction in adhered bacteria [%] S. aureus: polyester fabric, application concentration 0.1 wt %, commercial product applied directly by padding, relative to uncoated fabric
Method: (§1) Circular fabric samples with a diameter of 0.6 cm were punched from coated and uncoated cotton and polyester fabrics. The fabric samples were fixed to a microtiter plate. The fabric samples were washed with acetone and sterilized with UV light for 60 minutes.
(§2) The strains were coated fresh from glycerol bacterial cultures onto tryptic soy agar (TSA). Incubation took place overnight at 33° C. The nutrient medium prepared was a tryptic soy broth (TSB), with 30% of the amount recommended by the manufacturer, supplemented with 0.25% of glucose. […] The nutrient medium was inoculated with the bacterial cultures and after inoculation was cultivated overnight at 37° C. and 160 rpm.
(§3) The resulting overnight cultures were centrifuged at 8500 g for 15 minutes and washed with 50 ml of isotonic saline solution (0.9 wt %). Bacterial suspensions in isotonic saline solutions were prepared. The optical density of the various bacterial suspensions was determined at 595 nm and adjusted to a level of about 1.2.
(§4) 50 μl of the final microorganism suspension in isotonic saline solution (0.9 wt %) prepared as described under 2.2 were added to the coated and uncoated fabric samples fixed on the microtiter plate (see 2.1). The microtiter plates were closed and sealed off with Parafilm. The microtiter plates were placed in an antievaporation box and incubated at 33° C. for 2 h and at 40 rpm. The expected colony-forming unit count (CFU) of the inoculum at the start was 10^6-10^7 CFU/ml.
(§5) After the biofilm had formed, the planctonic cells were removed and used as a sample for determining the optical density at 595 nm. For this purpose, the samples were made up to a volume of 150 μl, and 100 μl were withdrawn for the optical density determination in a photometer. The optical density of the corresponding control solution with sterile isotonic saline solution was subtracted from the optical densities found. Through the determination of the planctonic cells after the formation of biofilm, the amount of bacteria available for adhesion was monitored.
(§6) The fabric samples and the resulting biofilm were washed three times with 200 to 300 μl of isotonic saline solution.
(§7) The fabric samples obtained under 2.4 (after formation of biofilm) were placed together with 100 μl of isotonic saline solution into wells of a 96-well microtiter plate.
(§8) Investigations into the removal of the adhered microorganisms from the fabric surfaces were carried out with vortexing, ultrasound, with enzymatic treatment, or with combinations thereof. Treatment in the vortex amounted to 5 minutes and was performed horizontally. The ultrasound treatment was carried out in an ultrasound bath for 5 minutes. For the enzymatic removal, the fabric samples were treated with enzymes, such as trypsin or a mixture of different enzymes, for example, during incubation at 37° C. for 1 hour.
(§9) Following removal of the adhered bacteria, the fabric samples were removed from the microtiter plates.
(§10) The number of removed bacteria in the resulting suspension was determined by staining with Syto9 and fluorescence measurement (fluorescence filter with excitation at 485/20 nm and emission at 528/20 nm) or by staining with BacTiterGlo and bioluminescence measurement. Furthermore, it is possible to determine the number of adhered and removed microorganisms by means of protein assay (e.g., BCA assay, Bradford Assay) or optical density proliferation assay.
The relative variables (e.g., fluorescence units (RFU)) concerning the coated and uncoated fabrics were compared, allowing the reduction in adhered bacteria in % to be determined in accordance with the following formula: Reduction in adhered bacteria[%]=[(RFUuc−RFUuc)/RFUuc]*100 where • RFUuc=relative fluorescence units of the removed bacteria of the uncoated substrate • RFUc=relative fluorescence units of the removed bacteria of the coated substrate […]

Staphylococcus aureus = format: cell-based; conditions: for Reduction in cell count relative to control [%] S. aureus: coated glass slide vs uncoated glass control K; for Cell count [1/cm^2] S. aureus: glass slide coated from 0.1% strength solution, bacterial suspension 10^9 microbes/ml, 30 measuring windows
Text: (§11) Silane derivatives S1, S3, S4 and S5 as identified above in example 1 were used to produce coatings on glass slides. As a control (comparison sample) K, an uncoated glass slide cleaned with isopropanol was used.
(§12) For the coating of the slides they were immersed for 60 seconds into a 0.1% strength solution of the corresponding silane derivative in ethanol/water as solvent with a water fraction of 5%. The solutions had been adjusted with acetic acid beforehand to a pH in the range from 4 to 5. The wetted slides were subsequently dried at 160° C. for 1 hour.
(§13) The slides wetted with the bacterial suspension were analyzed by microscope to determine the adhering bacteria. […] The fluorescent dye used was DAPI (4′,6-diamidine-2-phenylindole), which binds to DNA and fluoresces under UV excitation. In order to determine the adhesion characteristics, the cell counts per cm^2 were ascertained in 30 measuring windows, and the adhesion pattern was evaluated. Cell attachment was evaluated on an Olympus IX 51 using the Labflow AnalySIS image processing program.
(§14) Bacterial suspensions produced and used were suspensions of test cultures of the strains Staphylococcus aureus and Escherichia coli. The concentration of the bacterial suspension was 10^9 microbes/ml.

Escherichia coli = test: Bacterial adhesion to coated glass slides via fluorescence microscopy (DAPI); format: cell-based; conditions: for Reduction in cell count relative to control [%] E. coli: coated glass slide vs uncoated glass control K; for Cell count [1/cm^2] E. coli: glass slide coated from 0.1% strength solution, bacterial suspension 10^9 microbes/ml, 30 measuring windows
Text: as §11, §12, §13, §14

P. aeruginosa DSMZ 1117 = format: cell-based, Pseudomonas aeruginosa; conditions: for Reduction in adhered bacteria [%]: P. aeruginosa, polyester; for Reduction in adhered bacteria [%] P. aeruginosa: polyester fabric, application concentration 0.1 wt %, commercial product applied directly by padding, relative to uncoated fabric
Method: as §1, §2, §3, §4
as §5, with “The optical density of the corresponding control solution with sterile isotonic saline solution was subtracted from the optical densities found.” left out
as §6, §7, §8, §9, §10
The relative variables (e.g., fluorescence units (RFU)) concerning the coated and uncoated fabrics were compared, allowing the reduction in adhered bacteria in % to be determined in accordance with the following formula: Reduction in adhered bacteria[%]=[(RFUuc−RFUuc)/RFUuc]*100 where • RFUuc=relative fluorescence units of the removed bacteria of the uncoated substrate • RFUc=relative fluorescence units of the removed bacteria of the coated substrate
The commercial products described in example 1 were applied directly by a padding method to polyester fabric samples.
Bacterial adhesion to the polyester fabric samples was investigated using the microtiter plate Syto9 assay, as described in example 2.

[1] = coating concentration 0.001 %, wash pretreatment (A) unwashed
[2] = coating concentration 0.001 %, wash pretreatment (B) washed twice at 30° C. only with water
[3] = coating concentration 0.001 %, wash pretreatment (C) washed once at 30° C. EN ISO 6330 method 8A with ECE B detergent
[4] = coating concentration 0.01 %, wash pretreatment (A) unwashed
[5] = coating concentration 0.01 %, wash pretreatment (B) washed twice at 30° C. only with water
[6] = coating concentration 0.01 %, wash pretreatment (C) washed once at 30° C. EN ISO 6330 method 8A with ECE B detergent
[7] = coating concentration 0.1 %, wash pretreatment (A) unwashed
[8] = coating concentration 0.1 %, wash pretreatment (B) washed twice at 30° C. only with water
[9] = coating concentration 0.1 %, wash pretreatment (C) washed once at 30° C. EN ISO 6330 method 8A with ECE B detergent

| Compound | Reduction in adhered bacteria [%] (S. aureus DSMZ 20231; [1]) | Reduction in adhered bacteria [%] (S. aureus DSMZ 20231; [2]) | Reduction in adhered bacteria [%] (S. aureus DSMZ 20231; [3]) | Reduction in adhered bacteria [%] (S. aureus DSMZ 20231; [4]) | Reduction in adhered bacteria [%] (S. aureus DSMZ 20231; [5]) | Reduction in adhered bacteria [%] (S. aureus DSMZ 20231; [6]) | Reduction in adhered bacteria [%] (S. aureus DSMZ 20231; [7]) | Reduction in adhered bacteria [%] (S. aureus DSMZ 20231; [8]) | Reduction in adhered bacteria [%] (S. aureus DSMZ 20231; [9]) | Reduction in adhered bacteria [%] S. aureus (S. aureus DSMZ 20231) | Reduction in cell count relative to control [%] S. aureus (Staphylococcus aureus) | Cell count [1/cm^2] S. aureus (Staphylococcus aureus) | Reduction in cell count relative to control [%] E. coli (Escherichia coli) | Cell count [1/cm^2] E. coli (Escherichia coli) | Reduction in adhered bacteria [%] (P. aeruginosa DSMZ 1117; [1]) | Reduction in adhered bacteria [%] (P. aeruginosa DSMZ 1117; [2]) | Reduction in adhered bacteria [%] (P. aeruginosa DSMZ 1117; [3]) | Reduction in adhered bacteria [%] (P. aeruginosa DSMZ 1117; [4]) | Reduction in adhered bacteria [%] (P. aeruginosa DSMZ 1117; [5]) | Reduction in adhered bacteria [%] (P. aeruginosa DSMZ 1117; [6]) | further results |
| --- | --- | --- | --- | --- | --- | --- | --- | --- | --- | --- | --- | --- | --- | --- | --- | --- | --- | --- | --- | --- | --- |
| CO[Si](CCCN(CCN(CC(=O)[O-])CC(=O)[O-])CC(=O)[O-])(OC)OC.[Na+].[Na+].[Na+] [S5, N-(trimethoxysilylpropyl)ethylenediaminetriacetyl acid, trisodium salt] | 69% | 59% | 75% | 44% | 22% | 53% | 72% | 68% | 38% | 46% | 52% | 219 000 1/cm^2 | 61% | 306 000 1/cm^2 | 81% | 42% | 77% | 78% | 54% | 73% | Reduction in adhered bacteria [%] (P. aeruginosa DSMZ 1117; [7]): 68%; Reduction in adhered bacteria [%] (P. aeruginosa DSMZ 1117; [8]): 69%; Reduction in adhered bacteria [%] (P. aeruginosa DSMZ 1117; [9]): 67%; Reduction in adhered bacteria [%] P. aeruginosa (P. aeruginosa DSMZ 1117): 17% |
| N-(triethoxysilylpropyl)-O-polyethylene oxide-urethane, (4-6 EO units) [S3] | 57% | 54% | 69% | 63% | 34% | 58% | 47% | 46% | 61% | 55% | 83% | 77 000 1/cm^2 | 71% | 233 000 1/cm^2 | 63% | 46% | 69% | 65% | 37% | 71% | adhesion of S. aureus to coated glass, assessment in words (Staphylococcus aureus; coated glass slides): Very good results; adhesion of bacteria to coated glass, assessment in words (Escherichia coli; both series of tests (S. aureus and E. coli), compared with glass control): very good results; Reduction in adhered bacteria [%] (P. aeruginosa DSMZ 1117; [7]): 85%; Reduction in adhered bacteria [%] (P. aeruginosa DSMZ 1117; [8]): 36%; Reduction in adhered bacteria [%] (P. aeruginosa DSMZ 1117; [9]): 76%; Reduction in adhered bacteria [%] P. aeruginosa (P. aeruginosa DSMZ 1117): 48% |
